In ChEMBL document CHEMBL1128612, “Synthesis and biological activity of enantiomers of a conformationally restricted muscarone analog” (Bioorg Med Chem Lett, 1995):

What was measured:
[1] = molecular target: T1, Muscarinic acetylcholine receptor M2 (Rattus norvegicus, UniProt P10980)
T1 sequence (P10980 whole entry): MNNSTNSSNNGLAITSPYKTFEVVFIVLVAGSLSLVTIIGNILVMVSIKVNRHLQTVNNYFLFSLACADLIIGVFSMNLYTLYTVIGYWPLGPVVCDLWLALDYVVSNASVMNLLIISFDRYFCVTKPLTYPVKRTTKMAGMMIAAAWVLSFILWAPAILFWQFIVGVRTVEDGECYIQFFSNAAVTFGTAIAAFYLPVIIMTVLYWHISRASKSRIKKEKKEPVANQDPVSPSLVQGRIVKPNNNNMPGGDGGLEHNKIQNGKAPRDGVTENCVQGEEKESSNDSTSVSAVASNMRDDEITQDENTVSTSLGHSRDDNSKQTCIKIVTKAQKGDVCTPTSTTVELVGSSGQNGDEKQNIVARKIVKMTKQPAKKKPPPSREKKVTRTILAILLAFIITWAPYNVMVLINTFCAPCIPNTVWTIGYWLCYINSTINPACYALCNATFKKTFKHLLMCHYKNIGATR
Description: Compound was evaluated for its affinity towards Muscarinic acetylcholine receptor M2, using [3H]- N-methyl-scopolamine, a radioligand displacement assay in rat heart membranes

[2] = molecular target: T2, Muscarinic acetylcholine receptor M1 (Rattus norvegicus, UniProt P08482)
T2 sequence (P08482 whole entry): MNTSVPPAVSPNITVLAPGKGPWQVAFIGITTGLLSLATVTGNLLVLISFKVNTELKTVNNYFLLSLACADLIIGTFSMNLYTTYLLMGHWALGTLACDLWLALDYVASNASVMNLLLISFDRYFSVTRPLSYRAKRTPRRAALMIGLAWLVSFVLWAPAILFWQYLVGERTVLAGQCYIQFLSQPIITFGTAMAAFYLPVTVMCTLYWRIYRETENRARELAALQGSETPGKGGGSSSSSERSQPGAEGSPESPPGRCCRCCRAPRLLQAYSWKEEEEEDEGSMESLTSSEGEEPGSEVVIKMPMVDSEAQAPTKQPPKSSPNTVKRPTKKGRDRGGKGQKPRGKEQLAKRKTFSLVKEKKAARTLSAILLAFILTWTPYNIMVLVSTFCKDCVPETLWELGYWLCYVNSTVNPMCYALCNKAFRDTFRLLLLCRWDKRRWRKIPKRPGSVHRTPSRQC
Description: Compound was evaluated for its affinity towards Muscarinic acetylcholine receptor M1, using [3H]- pirenzepine, a radioligand displacement assay in rat hippocampal membranes

[3] = molecular target: Muscarinic acetylcholine receptor M3 (Cavia porcellus) (UniProt Q8VH26)
Sequence of Muscarinic acetylcholine receptor M3 (Cavia porcellus) (Q8VH26 1-587): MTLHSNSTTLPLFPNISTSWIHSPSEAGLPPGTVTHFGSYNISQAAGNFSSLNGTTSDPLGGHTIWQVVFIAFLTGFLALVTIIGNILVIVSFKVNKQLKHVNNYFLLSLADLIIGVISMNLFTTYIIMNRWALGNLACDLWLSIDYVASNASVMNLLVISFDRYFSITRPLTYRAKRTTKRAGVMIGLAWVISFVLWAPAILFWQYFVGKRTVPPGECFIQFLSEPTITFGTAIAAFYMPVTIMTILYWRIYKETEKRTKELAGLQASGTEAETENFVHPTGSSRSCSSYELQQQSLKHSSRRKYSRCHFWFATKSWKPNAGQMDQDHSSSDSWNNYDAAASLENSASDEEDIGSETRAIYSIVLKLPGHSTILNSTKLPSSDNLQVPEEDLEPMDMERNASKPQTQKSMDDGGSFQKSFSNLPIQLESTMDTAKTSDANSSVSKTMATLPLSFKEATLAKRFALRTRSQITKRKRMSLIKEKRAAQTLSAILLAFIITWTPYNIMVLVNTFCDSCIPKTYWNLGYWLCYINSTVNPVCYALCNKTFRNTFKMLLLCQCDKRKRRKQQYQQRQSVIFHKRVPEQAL
Description: Compound was evaluated for dissociation constant (KA), determined from potency against Muscarinic acetylcholine receptor M3 in an isolated tissue assay (guinea pig trachea)

Row | Ki [1] [µM] | Ki [2] [µM] | KA [3] [µM] | SMILES
1 | 37 | 26 | 4.5 | C[C@H]1OC2(CCN(C)CC2)CC1=O
2 | 2.5 | 4.1 | 0.28 | C[C@@H]1OC2(CCN(C)CC2)CC1=O
3 | 5.3 | 3.8 | 0.7 | CC1OC2(CCN(C)CC2)CC1=O (centres undefined)
